Where “and” joins values, the source holds several entries; their conditions need not be identical. Equal values may be shown once.
Molecular target: T1, CD73 (Homo sapiens, UniProt P21589)
T1 sequence (P21589 27-549): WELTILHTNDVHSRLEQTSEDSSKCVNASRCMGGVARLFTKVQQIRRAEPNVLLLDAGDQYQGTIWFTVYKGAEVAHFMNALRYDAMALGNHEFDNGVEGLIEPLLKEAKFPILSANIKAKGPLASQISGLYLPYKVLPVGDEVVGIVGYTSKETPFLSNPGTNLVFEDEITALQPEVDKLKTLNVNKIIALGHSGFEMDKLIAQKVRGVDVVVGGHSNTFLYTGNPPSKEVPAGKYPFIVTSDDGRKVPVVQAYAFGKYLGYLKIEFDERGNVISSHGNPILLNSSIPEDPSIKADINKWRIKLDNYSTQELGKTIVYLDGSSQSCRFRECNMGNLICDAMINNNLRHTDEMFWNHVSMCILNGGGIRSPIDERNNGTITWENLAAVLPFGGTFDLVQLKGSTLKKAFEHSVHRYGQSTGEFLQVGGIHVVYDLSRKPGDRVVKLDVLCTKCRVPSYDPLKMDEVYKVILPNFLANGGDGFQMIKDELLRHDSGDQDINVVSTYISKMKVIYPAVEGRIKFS
Experiment: Example A1: Biochemical Assay (CD73 inhibition, Malachite Green detection of AMP hydrolysis)
Conditions: CD73 0.3208 nM, AMP 15 μM, Tris-HCl pH 7.4, Malachite Green, absorbance 620 nm; read-out: Biochemical IC50
Procedure: Example A1: Biochemical Assay
Assay Reaction Conditions
• Assay Volume: 70 μl • Reaction Volume: 50 μl • CD73: 0.3208 nM • AMP: 15 μM • Assay Buffer: 2 5 mM Tris-HCL, pH 7.4, 0.01% Brij-35, 0.01% BSA, 5 mM MgCl2 Assay Procedure:
Made dose titration of testing compounds in assay buffer, 10 points ½ log titrations in duplicates starting at 100 μM.
Added 25 μl of CD73 to each well for a final concentration of […].
Incubated at RT for 15 min.
Added 25 μl of AMP to each well for a final concentration of 15 μM.
Incubated at RT for 10 min.
Added 10 μl of Malachite Green Reagent A, incubate at RT for 10 min.
Added 10 μl of Malachite Green Reagent B, incubate at RT for 45 min.
Read the Absorbance on Envision plate reader using excitation filter: Cy5 […].
The ability of the compounds disclosed herein to inhibit CD73 activity was quantified and the respective IC50 values were determined. Table 1 provides the biochemical IC50 values of compounds disclosed herein.

IC50	SMILES
< 100 nM	O=P(O)(O)CP(=O)(O)OC[C@H]1OC(n2nnc3c(NC4CCc5ccccc54)nc(Cl)nc32)[C@H](O)[C@@H]1O (stereo in doubt) [Example 31, (((((2R,3S,4R,5S)-5-(5-chloro-7-(((R)-2,3-dihydro-1H-inden-1-yl)amino)-3H-[1,2,3]triazolo[4,5-d]pyrimidin-3-yl)-3,4-dihydroxytetrahydrofuran-2-yl)methoxy)(hydroxy)phosphoryl)methyl) phosphonic acid]
< 100 nM and 100 to 1000 nM	O=P(O)(O)CP(=O)(O)OC[C@H]1CC(n2nnc3c(NC4CCc5ccccc54)nc(Cl)nc32)[C@H](O)[C@@H]1O (stereo in doubt) [Example 35, (((((1R,2R,3S,4S)-4-(5-chloro-7-(((S)-2,3-dihydro-1H-inden-1-yl)amino)-3H-[1,2,3]triazolo[4,5-d]pyrimidin-3-yl)-2,3-dihydroxycyclopentyl)methoxy) (hydroxy)phosphoryl)methyl)phosphonic acid]
100 to 1000 nM	O=P(O)(O)CP(=O)(O)OC[C@H]1O[C@@H](n2nnc3c(NCc4ccccc4)nc(Cl)nc32)[C@H](O)[C@@H]1O [Example 1, (((((2R,3S,4R,5R)-5-(7-(Benzylamino)-5-chloro-3H-[1,2,3]triazolo[4,5-d]pyrimidin-3-yl)-3,4-dihydroxytetrahydrofuran-2-yl)methoxy)(hydroxy)phosphoryl)methyl)phosphonic acid]
100 to 1000 nM	O=P(O)(O)CP(=O)(O)OC[C@H]1C[C@@H](n2nnc3c(NCc4ccccc4Cl)nc(Cl)nc32)[C@H](O)[C@@H]1O [Example 2, (((((1R,2R,3S,4R)-4-(5-chloro-7-((2-chlorobenzyl)amino)-3H-[1,2,3]triazolo[4,5-d]pyrimidin-3-yl)-2,3-dihydroxycyclopentyl)methoxy)(hydroxy)phosphoryl)methyl)phosphonic acid]
100 to 1000 nM	O=P(O)(O)CP(=O)(O)OC[C@H]1O[C@@H](n2nnc3c(NC[C@H]4CCOC4)nc(Cl)nc32)[C@H](O)[C@@H]1O [Example 3, (((((2R,3S,4R,5R)-5-(5-chloro-7-((((R)-tetrahydrofuran-3-yl)methyl)amino)-3H-[1,2,3]triazolo[4,5-d]pyrimidin-3-yl)-3,4-dihydroxytetrahydrofuran-2-yl)methoxy)(hydroxy)phosphoryl)methyl) phosphonic acid]
> 1000 nM	Nc1nc(Cl)nc2c1nnn2[C@@H]1O[C@H](COP(=O)(O)CP(=O)(O)O)[C@@H](O)[C@H]1O [Example 4, (((((2R,3S,4R,5R)-5-(7-amino-5-chloro-3H-[1,2,3]triazolo[4,5-d]pyrimidin-3-yl)-3,4-dihydroxytetrahydrofuran-2-yl)methoxy)(hydroxy)phosphoryl)methyl) phosphonic acid]
100 to 1000 nM	O=P(O)(O)CP(=O)(O)OC[C@H]1O[C@@H](n2nnc3c(NCC4CC4)nc(Cl)nc32)[C@H](O)[C@@H]1O [Example 5, (((((2R,3S,4R,5R)-5-(5-chloro-7-((cyclopropylmethyl)amino)-3H-[1,2,3]triazolo[4,5-d]pyrimidin-3-yl)-3,4-dihydroxytetrahydrofuran-2-yl)methoxy)(hydroxy)phosphoryl)methyl) phosphonic acid]
< 100 nM	O=P(O)(O)CP(=O)(O)OC[C@H]1O[C@@H](n2nnc3c(NCc4ccccc4Cl)nc(Cl)nc32)[C@H](O)[C@@H]1O [Example 6, (((((2R,3S,4R,5R)-5-(5-chloro-7-((2-chlorobenzyl)amino)-3H-[1,2,3]triazolo[4,5-d]pyrimidin-3-yl)-3,4-dihydroxytetrahydrofuran-2-yl)methoxy)(hydroxy)phosphoryl)methyl) phosphonic acid]
< 100 nM	O=P(O)(O)CP(=O)(O)OC[C@H]1O[C@@H](n2nnc3c(NCc4ccc(Cl)cc4)nc(Cl)nc32)[C@H](O)[C@@H]1O [Example 7, (((((2R,3S,4R,5R)-5-(5-chloro-7-((4-chlorobenzyl)amino)-3H-[1,2,3]triazolo[4,5-d]pyrimidin-3-yl)-3,4-dihydroxytetrahydrofuran-2-yl)methoxy)(hydroxy)phosphoryl)methyl) phosphonic acid]
< 100 nM	C[C@H](Nc1nc(Cl)nc2c1nnn2[C@@H]1O[C@H](COP(=O)(O)CP(=O)(O)O)[C@@H](O)[C@H]1O)c1ccccc1 [Example 8, (((((2R,3S,4R,5R)-5-(5-chloro-7-(((S)-1-phenylethyl)amino)-3H-[1,2,3]triazolo[4,5-d]pyrimidin-3-yl)-3,4-dihydroxytetrahydrofuran-2-yl)methoxy)(hydroxy)phosphoryl)methyl) phosphonic acid]
< 100 nM	C[C@H](Nc1nc(Cl)nc2c1nnn2[C@@H]1O[C@H](COP(=O)(O)CP(=O)(O)O)[C@@H](O)[C@H]1O)c1ccccc1Cl [Example 9, (((((2R,3S,4R,5R)-5-(5-chloro-7-(((S)-1-(2-chlorophenyl)ethyl)amino)-3H-[1,2,3]triazolo[4,5-d]pyrimidin-3-yl)-3,4-dihydroxytetrahydrofuran-2-yl)methoxy)(hydroxy)phosphoryl)methyl) phosphonic acid]
100 to 1000 nM	O=P(O)(O)CP(=O)(O)OC[C@H]1O[C@@H](n2nnc3c(N4CCCC[C@@H]4c4ccccc4)nc(Cl)nc32)[C@H](O)[C@@H]1O [Example 10, (((((2R,3S,4R,5R)-5-(5-chloro-7-((R)-2-phenylpiperidin-1-yl)-3H-[1,2,3]triazolo[4,5-d]pyrimidin-3-yl)-3,4-dihydroxytetrahydrofuran-2-yl)methoxy)(hydroxy)phosphoryl)methyl) phosphonic acid]
100 to 1000 nM	O=P(O)(O)CP(=O)(O)OC[C@H]1O[C@@H](n2nnc3c(N4CCC[C@H]4c4ccccc4)nc(Cl)nc32)[C@H](O)[C@@H]1O [Example 11, (((((2R,3S,4R,5R)-5-(5-chloro-7-((S)-2-phenylpyrrolidin-1-yl)-3H-[1,2,3]triazolo[4,5-d]pyrimidin-3-yl)-3,4-dihydroxytetrahydrofuran-2-yl)methoxy)(hydroxy)phosphoryl)methyl) phosphonic acid]
< 100 nM	C[C@@H](c1ccccc1Cl)N(C)c1nc(Cl)nc2c1nnn2[C@@H]1O[C@H](COP(=O)(O)CP(=O)(O)O)[C@@H](O)[C@H]1O [Example 12, (((((2R,3S,4R,5R)-5-(5-chloro-7-(((S)-1-(2-chlorophenyl)ethyl)(methyl)amino)-3H-[1,2,3]triazolo[4,5-d]pyrimidin-3-yl)-3,4-dihydroxytetrahydrofuran-2-yl)methoxy)(hydroxy)phosphoryl)methyl) phosphonic acid]
< 100 nM	C[C@@H](c1ccccc1)N(C)c1nc(Cl)nc2c1nnn2[C@@H]1O[C@H](COP(=O)(O)CP(=O)(O)O)[C@@H](O)[C@H]1O [Example 13, (((((2R,3S,4R,5R)-5-(5-chloro-7-(methyl((S)-1-phenylethyl)amino)-3H-[1,2,3]triazolo[4,5-d]pyrimidin-3-yl)-3,4-dihydroxytetrahydrofuran-2-yl)methoxy)(hydroxy)phosphoryl)methyl) phosphonic acid]
< 100 nM	O=P(O)(O)CP(=O)(O)OC[C@H]1O[C@@H](n2nnc3c(NCc4cccc(Cl)c4)nc(Cl)nc32)[C@H](O)[C@@H]1O [Example 14, (((((2R,3S,4R,5R)-5-(5-chloro-7-((3-chlorobenzyl)amino)-3H-[1,2,3]triazolo[4,5-d]pyrimidin-3-yl)-3,4-dihydroxytetrahydrofuran-2-yl)methoxy)(hydroxy)phosphoryl)methyl) phosphonic acid]
< 100 nM	CN(Cc1ccccc1)c1nc(Cl)nc2c1nnn2[C@@H]1O[C@H](COP(=O)(O)CP(=O)(O)O)[C@@H](O)[C@H]1O [Example 15, (((((2R,3S,4R,5R)-5-(7-(benzyl(methyl)amino)-5-chloro-3H-[1,2,3]triazolo[4,5-d]pyrimidin-3-yl)-3,4-dihydroxytetrahydrofuran-2-yl)methoxy)(hydroxy)phosphoryl)methyl) phosphonic acid]
< 100 nM	O=P(O)(O)CP(=O)(O)OC[C@H]1O[C@@H](n2nnc3c(N4CCCC[C@H]4c4ccccc4)nc(Cl)nc32)[C@H](O)[C@@H]1O [Example 16, (((((2R,3S,4R,5R)-5-(5-chloro-7-((S)-2-phenylpiperidin-1-yl)-3H-[1,2,3]triazolo[4,5-d]pyrimidin-3-yl)-3,4-dihydroxytetrahydrofuran-2-yl)methoxy)(hydroxy)phosphoryl)methyl) phosphonic acid]
100 to 1000 nM	O=P(O)(O)CP(=O)(O)OC[C@H]1O[C@@H](n2nnc3c(N4CCC[C@@H]4c4ccccc4)nc(Cl)nc32)[C@H](O)[C@@H]1O [Example 17, (((((2R,3S,4R,5R)-5-(5-chloro-7-((R)-2-phenylpyrrolidin-1-yl)-3H-[1,2,3]triazolo[4,5-d]pyrimidin-3-yl)-3,4-dihydroxytetrahydrofuran-2-yl)methoxy)(hydroxy)phosphoryl)methyl) phosphonic acid]
